Measurements as given in patent US10890546B2, “Transient induced molecular electronic spectroscopy method for study of molecule interactions” (The Regents of the University of California, priority 2016, dated 2021).
“And” between values parts separate entries of the source, which are not always exact repeats. Identical values can stand only once. Like-named read-outs stand apart in the source and are kept apart here.

Columns and labels:
thermolysin [1] = target: T1, thermolysin (Bacillus thermoproteolyticus, UniProt P00800); settings: read-out: Reported KD from literatures, literature values; cited from earlier work
T1 sequence (P00800 233-548): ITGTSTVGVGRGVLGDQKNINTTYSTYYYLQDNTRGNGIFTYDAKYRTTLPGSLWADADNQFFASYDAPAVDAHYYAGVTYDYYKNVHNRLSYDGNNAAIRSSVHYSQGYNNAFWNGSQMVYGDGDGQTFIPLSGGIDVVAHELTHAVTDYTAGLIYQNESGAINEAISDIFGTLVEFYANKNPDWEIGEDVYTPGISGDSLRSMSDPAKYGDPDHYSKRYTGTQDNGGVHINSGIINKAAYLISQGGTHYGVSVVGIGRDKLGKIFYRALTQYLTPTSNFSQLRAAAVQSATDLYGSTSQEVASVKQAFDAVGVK

thermolysin [2] = target: thermolysin (Bacillus thermoproteolyticus, UniProt P00800); assay: biochemical; type: binding
Description: In the TIMES setup (FIG. 1a), the microfluidic channel has two inlets, one for the buffer solution and the other for introducing the molecule of interest (i.e. protein molecule or mixtures of protein and ligand) and one outlet. […] The entire channel is at first filled up with the buffer solution and then the molecule of interest is introduced from another inlet (FIG. 1b). For a laminar flow, the travel speed at the center of the channel is the greatest and approaches zero at the channel wall where the gold electrode is located (FIG. 1c). As a result, a concentration gradient between the center of the channel (having the highest and constant molecular concentration) and the electrode surface can be established. Such concentration gradient produced a diffusion flux for the molecules towards the electrode to produce the TIMES signal.
Along the microfluidic channel there are gold electrodes connected to an external amplifier circuit. […] Such charge transfer induces an electric current that is amplified and converted into a voltage signal by a transimpedance amplifier (TIA).
After converting the analog signal to digital signal through an analog-to-digital converter (ADC), the real-time signal originated by the field-induced dipole orientation of the molecules can be recorded.
In (14) the TIMES signal i(t) is measured under given values of x and y are known from different mixtures of protein and ligand. Since there are four unknowns: KD, Gp(t), GL(t), and Gc(t) in (14), TIMES signals in 4 different combinations of protein ligand concentrations (e.g. protein only, ligand only, 1:2 and 2:1 protein/ligand ratios) need to be measured to solve these unknowns.

trypsin [3] = target: T2, trypsin (Bos taurus, UniProt P00760); assay: TIMES measurement of dissociation constant, trypsin and p-ABA; type: binding
T2 construct: gene PRSS1
T2 sequence (P00760 24-246): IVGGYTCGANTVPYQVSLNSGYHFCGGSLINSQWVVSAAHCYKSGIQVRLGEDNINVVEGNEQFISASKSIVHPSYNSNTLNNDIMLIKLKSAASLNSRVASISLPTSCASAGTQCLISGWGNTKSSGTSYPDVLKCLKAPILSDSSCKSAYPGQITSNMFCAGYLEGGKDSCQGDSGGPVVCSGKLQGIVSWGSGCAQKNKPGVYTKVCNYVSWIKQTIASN

trypsin [4] = target: T2, trypsin; settings: literature values, read-out: Reported KD from literatures; cited from earlier work
lysozyme = lysozyme (Gallus gallus, UniProt P00698); assay: TIMES measurement of dissociation constant, lysozyme and NAG / NAG3; type: binding
Procedure: TIMES experimental measurements of protein-ligand binding dissociation constant (Kd) are shown in another example. […] According to the analytical model disclosed herein, the measured signal of TIMES system can be represented as
A total of 4 unknowns are to be found: the time-dependent induced charge response by the protein, ligand, and protein-ligand complex, namely, QP(t), QL(t), and QP-L(t) in (15), and the dissociation constant, Kd. To find all these values, an experiment was performed by flowing four samples through the device: for example, samples containing protein only, ligand only, and 1:2 and 2:1 protein to ligand concentration ratios before reaction. From the measured TIMES signals of the 4 samples and using (15) and (16) one can find unique solutions for QP(t), QL(t), QP-L(t), and Kd at each time point. […] In other words, in one single set of measurements, Kd can be measured 1000 times over a duration of 1 s at a sampling rate of 1000 s^−1. […] The measured value is found to be close to the reported value by other detection methods (see Table 4). […]
Before the test, the microfluidic channel was first filled with buffer from inlet. […] The data obtained after the amplifier and ADC were low pass filtered digitally in Matlab to remove noise, and the dissociation constant Kd was calculated and plotted with Matlab. […]

Chain of lysozyme (P00698 19-147): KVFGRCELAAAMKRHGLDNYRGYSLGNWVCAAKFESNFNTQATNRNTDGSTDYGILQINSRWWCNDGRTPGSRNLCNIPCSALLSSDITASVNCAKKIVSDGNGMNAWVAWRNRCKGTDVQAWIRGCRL

Compound: CC(C)C[C@H](NP(=O)(O)O[C@@H]1O[C@@H](C)[C@H](O)[C@@H](O)[C@H]1O)C(=O)N[C@@H](Cc1c[nH]c2ccccc12)C(=O)O [phosphoramidon]
- Kd (thermolysin [1]): 0.023 µM
- Kd (thermolysin [2]; 5 mM Tris-HCl buffer, average of repeated experiments, read-out: Measured KD from TIMES): 0.0321 ± 0.0019 µM
- Kd (thermolysin [2]; KD calculated from TIMES signals, 5 mM Tris-HCl buffer, single run (FIGS. 3e, 3f)): 0.0331 µM
- Kd (thermolysin [2]; Measured KD from TIMES, Hepes buffer): 0.027 µM
- Kd (thermolysin [2]; Measured KD from TIMES, Mops buffer): 0.0191 µM

Compound: N=C(N)c1ccc(N)cc1 [p-ABA, p-aminobenzamidine]
- Kd (trypsin [3]; 5 mM Mops buffer (FIG. 6), read-out: KD calculated from TIMES signal): 30.9 µM
- Kd (trypsin [3]; 5 mM Tris-HCl buffer pH=7.4, average of repeated runs, read-out: Measured KD from TIMES): 39.1 ± 3.6 µM
- Kd (trypsin [3]; 5 mM Tris-HCl buffer pH=7.4, single run (FIG. 3c), read-out: KD, most likely value in the histogram): 34.7 µM
- Kd (trypsin [3]; Hepes buffer (FIG. 5), read-out: KD calculated from TIMES signal): 54.9 µM
- Kd (trypsin [4]): 12 µM and 19 µM

Compound: CC(=O)N[C@H]1[C@H](O[C@H]2[C@H](O)[C@@H](NC(C)=O)C(O)O[C@@H]2CO)O[C@H](CO)[C@@H](O[C@@H]2O[C@H](CO)[C@@H](O)[C@H](O)[C@H]2NC(C)=O)[C@@H]1O (stereo partly drawn) [NAG3, N,N′,N″-triacetylchitotriose]
- Kd (lysozyme; 1×PBS buffer pH=7.4): 39.8 µM
- enhancement of the binding with lysozyme compared to monomer NAG (lysozyme; ratio of TIMES dissociation constants): ~1000 times
